Reference: US10993936B2, “Method of treating one or more symptoms of pulmonary fibrosis by administering inhibitors of nicotinamide phosphoribotransferase” (Arizona Board of Regents on Behalf of the University of …, priority 2017, dated 2021)

Tests used:
[1] = tested on: IPF fibroblasts; test: staurosporine-induced apoptosis in IPF lung myofibroblasts; type: cell-based, human; conditions: IPF fibroblasts pre-treated with FK-866; FIG. 11B
From the text: Human lung tissue and fibroblasts were isolated from the lungs of patients with a confirmed diagnosis of IPF as previously described (18), under an approved protocol by the Institutional Review Board. Fibroblasts were isolated and evaluated for apoptosis, senescence, and ROS levels by immunofluorescence, immunohistochemistry, and/or biochemical assays.
Cells were lysed using caspase lysis buffer and analyzed for activated caspase 3 using the BioVision Caspase 3 Fluorometric Assay Kit according to the manufacturer's instructions (BioVision, Inc, Milpitas Calif.).
Nampt contributes to mouse and human IPF fibroblasts resistance to apoptosis. Staurosporine (300 nM, 8 h)-induced expression of apoptotic markers, cleaved caspase 3 and PARP (FIG. 11A) was increased in lung fibroblasts isolated from Nampt+/− compared with WT mice.

[2] = tested on: H2O2-induced apoptosis; test: H2O2-induced apoptosis defined by the TUNEL assay; type: cell-based; conditions: FIG. 14
Method: Slices were first incubated with anti-αSMA overnight at 4° C. After the TUNEL protocol, slides were mounted in DAPI-containing media (Vector Labs) and cells were visualized on a Zeiss fluorescent microscope. TUNEL-positive cells were counted per field in 15-20 fields and normalized to total cells from the DAPI stain.
FIGS. 12A-D show chemical structure of the NAMPT inhibitor, FK-866 (FIG. 12A) which is divided into three regions (FIG. 12B) and varied by replacing with N-heterocycles to generate novel FK866 analogs: MS-1-82 (FIG. 12C), Rari049 (FIG. 12D), Alpii135 (FIG. 12E); FIG. 13 is a bar graph showing normalized NAMPT activity in the present of FK866 and FK analogues MS-1-82, Rari049, Alpii135 at […] concentrations; FIG. 14 is a bar graph showing the role of Nampt enzymatic activity in H2O2-induced apoptosis defined by the TUNEL assay.

[3] = MCT-PH preventive therapy study; type: in vivo; conditions: preliminary studies
From the text: To generate functional analogs of the NAMPT inhibitor FK-866, the FK-866 structure was divided into three regions and varied by replacing with N-heterocycles to generate FK866 analogs.

Row | Compound | staurosporine-induced apoptosis [1] | H2O2-induced apoptosis [2] | hyper-trophy-ratio of RV and LV plus septal-S weight (RVH-RV) [3] | right ventricular systolic pressure (RVSP) [3]
1 | O=C(/C=C/c1cccnc1)NCCCCC1CCN(C(=O)c2ccccc2)CC1 [FK-866, (E)-N-[4-(1-Benzoylpiperidin-4-yl)butyl]-3-pyridin-3-ylprop-2-enamide] | restored apoptosis | blocks H2O2-induced apoptosis | – | –
2 | O=C(/C=C/c1cccnc1)NCCCCCCn1c(-c2ccccc2)cc2ccccc21 [Rari049] | – | – | reducing | reducing
